A short description of data set [1]: diuresis (urine production) in anesthetized, catheterized macaque monkeys.
A further data set concerns bicuculline spiking. Briefly: acute bicuculline seizure focus model in nonhuman primates (surface EEG). Type of data set: in vivo, Macaca nemestrina. As to conditions: for block of bicuculline spiking by comparator drugs: IV administration (FIG. 13); for effect on bicuculline spiking after oral dose: 10 mg/kg.
The next data set has as its system epileptiform activity. Briefly: primate neocortical seizure model. Type of data set: in vivo. As to conditions: Furosemide at 10 mg/kg IV, bumetanide at 2 mg/kg IV. The text has this:
The primate neocortical seizure model was used here for testing the effects of NKCC antagonists on epileptiform activity. This model and the techniques used to analyze the data was originally developed by Haglund and Hochman for the purpose of studying intrinsic optical signals in the human and primate brain, and how these signals could be used to map spread of seizure activity in the neocortex (Haglund et al. 1993, Haglund and Hochman, 2007). […] The afterdischarge protocol developed for human intraoperative studies as shown in the second figure below was also used in primate studies. As well, the physical properties of the optical signals from the brain generated by epileptiform activity (not shown here) (Haglund and Hochman, 2005, Haglund and Hochman 2007).

Data set [2] deals with spontaneous interictal spiking. As to conditions: 20 mg IV furosemide; cited from earlier work.
In the next data set the test system is afterdischarge activity. As to conditions: cortical stimulation, human patient; cited from earlier work.
The subject of a further data set is 4-AP bursting. Nature of the data set: 4-AP bursting in primate neocortical seizure model. As to conditions: Keppra 2×40 mg/kg. It counts as in vivo.
The test system of another data set is ADs and hand-twitching. Briefly: stimulation-evoked afterdischarges (ADs) and hand-twitching in primate model. As to conditions: in vivo. As to the method:
Stimulation-evoked […] evoked by a 4 sec train of 60 Hz biphasic pulses at 4-20 mA using a bipolar stimulating electrode (5 mm interelectrode distance) powered by a constant current source (Ojemann Cortical Stimulator, Integra Life Sciences Corporation, NJ, U.S.A.) placed on the sensory cortex, or by passing current between two of the three surface electrodes. The AD threshold was determined by stimulating at the lowest level that reliably triggered AD activity three times in a row and thresholds remained constant throughout recordings. AD activity was reliably elicited on the sensory cortex during the same experiments in which a bicuculline focus was created on the motor cortex. […] The brain is electrically stimulated for 4 seconds at varying current magnitudes until the “after discharge threshold” is determined: the magnitude of stimulation current that is just sufficient to elicit ADs. The stimulation artifacts are shown in the top lefthand trace, denoted by stars (*). The ADs are shown by orange bars. One can see that, in this case, 7 mA was not sufficient for eliciting ADs, but 8 mA reliably generated ADs. […] In this way, changes in the effect of a treatment on this type of electrical stimulation-evoked epileptiform activity can be quantified by measuring changes in the AD-threshold. From Haglund and Hochman, 2007.

For data set [3], the system named is maximal electroshock (MES) seizures. The following applies: pharmacology review provided to the FDA; cited from earlier work.
The test system of data set [4] is maximal pentylenetetrazol (PTZ) seizures. The following applies: pharmacology review provided to the FDA; cited from earlier work.
Data set [5] is described as follows: first-pass metabolism and intramuscular absorption of Bumetanide Dibenzylamide. It counts as in vivo. The text has this:
Refinement opportunities may include extended or controlled release oral capsule or tablet or use of a transdermal formulation. Intramuscular data shown below supports the development of a potential transdermal therapy.

A short description of data set [6]: repeated dosing in healthy adult subjects: BUN, creatinine, serum chloride, urine specific gravity as signs of diuresis. It counts as in vivo, humans. The following applies: healthy adults, eight capsules of 16 mg every 24 hours, day 1 to day 8. On the procedure: Pharmacokinetic (PK) blood samples were collected and analyzed pre-dosing to establish baseline levels. Analysis was also done on day1, day 3, day 4, day 5, day 6, day 7, and day 8 following dosing. The samples were analysed for BUN (blood urea nitrogen), creatinine, serum chloride, and urine specific gravity. Diuresis is indicated by an out of proportion increase in serum BUN compared to creatinine (BUN increase out of proportion to creatinine), a decrease in urine specific gravity, and an increase in serum chloride. […] The grey horizontal lines in FIGS. 28-29 are indicative of an upper and a lower range for accepted normal values. The control-subject (placebo) are indicated with white-and-black dashed lines and grey dots.

For data set [7] the following is noted: in vivo.
For another data set, the system named is fear-potentiated startle. Nature of the data set: rat fear-potentiated startle (FPS) model of conditioned anxiety. It counts as in vivo, Long-Evans rats. As to conditions: 35 mg/kg IV.
Where [8] appears, read: PO gavage, CMC-water suspension, mol-Eq to 10 mg/kg bumetanide, bicuculline-generated spikes, pretreatment vs maximum change.
Setting [9] is: PO, mol-Eq to 10 mg/kg bumetanide.
Setting [10] is: PO, 10 mg/kg bumetanide or mol-Eq.
The mark [11] stands for this setting: PO, mol-Eq to 10 mg/kg bumetanide, interspike intervals.

Here are results for eight compounds from patent publication US20240398740A1, “THERAPEUTIC COMPOSITION, METHODS, AND USES FOR THE CONTROL OF SEIZURES” (priority 2022, published 2024).

“Also recorded” adds a separate entry of the source. Like-named read-outs stand apart in the source and are kept apart here.

Consider `CCCCNc1cc(C(=O)N(CC)CC)cc(S(N)(=O)=O)c1Oc1ccccc1` [bumetanide diethylamide], for which the “percentage change in urine production over time” value (“percentage change” for short) in [1] (FIG. 21, compared to bumetanide) is “lower percentage change in urine production over time compared to bumetanide”. Moreover, the “rate of urine production over time” value in data set [1] (FIG. 22, compared to bumetanide) was “lower rate of urine production over time compared to bumetanide”. Moreover, the “average rate of urine production after treatment” value (from here on “average rate of urine production”) in [1] (FIG. 23, compared to bumetanide) is recorded as “lower average rate of urine production compared to bumetanide”. Further, the “Average % change in spike size” value in the data set on bicuculline spiking (setting [8]) stood at 40%. Moreover, in the data set on bicuculline spiking (setting [9]), the “Time to 50% recovery for spike sizes” value worked out at 59 min and the “Time to 50% recovery of ISI” value was 59 min. Also, the “Average % change in ISI” value in the data set on bicuculline spiking (in vivo) is 65%.

Take `NS(=O)(=O)c1cc(C(=O)O)c(NCc2ccco2)cc1Cl` [Furosemide, furosemide]: in [1] (in vivo), the “diuretic potency relative to bumetanide” value was “about 1/10”. Moreover, the “anticonvulsant effect in primate seizure model” value (“anticonvulsant effect” for short) in the data set with epileptiform activity is listed as “block seizures”. For the same compound, the “effect on spontaneous interictal spiking” value in data set [2] is listed as “Blockade of Spontaneous Interictal Spiking”. Further, in the data set on afterdischarge activity, the “afterdischarge activity after treatment” value is on record as “abruptly blocked” and the afterdischarge threshold entry is given as “increased the afterdischarge threshold”.

Take `O=C1NC(c2ccccc2)(c2ccccc2)C(=O)N1COP(=O)(O)O` [Fosphenatoin]: the “block of 4-AP bursting” value with 4-AP bursting was “block 4-AP bursting”. Further, the “block of ADs and hand-twitching” value in the data set on ADs and hand-twitching was “block ADs and hand-twitching”. The “block of bicuculline spiking by comparator drugs” value (“block of bicuculline spiking” below) with bicuculline spiking is listed as “does not”.

On to `CC[C@@H](C(N)=O)N1CCCC1=O` [Keppra, Levetiracetam], for which, in data set [3], the “anticonvulsant activity in MES test” value is on record as “no anticonvulsant activity”. Also, the “anticonvulsant effect” value with epileptiform activity is on record as “clear anticonvulsant effect”. In data set [4], the “anticonvulsant activity in PTZ test” value was “no anticonvulsant activity”. Further, the “block of 4-AP bursting” value in the data set with 4-AP bursting is recorded as “does NOT block 4-AP bursting”. Also, the “block of ADs and hand-twitching” value in the data set on ADs and hand-twitching was “does not”. Besides, in the data set on bicuculline spiking, the “block of bicuculline spiking” value is “block bicuculline spiking; also recorded: suppress bicuculline spiking”.

For `CCCCNc1cc(C(=O)N(Cc2ccccc2)Cc2ccccc2)cc(S(N)(=O)=O)c1Oc1ccccc1` [NPT 2042, N, N-dibenzyl 3-aminosulfonyl-5-butylamino-4-phenoxybenzamide], the “first-pass metabolism by the liver” value in data set [5] (in vivo) was “susceptible to high first-pass metabolism by the liver”. For the same compound, in [5] (intramuscular), the “absorption after intramuscular administration” value is recorded as “can be absorbed through the microvessels of the muscle into the circulation”. Moreover, in data set [6], the “indication of diuresis (BUN, creatinine, serum chloride, urine specific gravity)” value is “no indication of diuresis”. In addition, in data set [7], the “average rate of urine production” value was “lower average rate of urine production compared to bumetanide”, the “percentage change” value is listed as “lower percentage change in urine production over time compared to bumetanide” and the “rate of urine production over time” value is “lower rate of urine production over time compared to bumetanide”. In the data set with fear-potentiated startle, the “anxiolytic effect in the FPS model” value is recorded as “anxiolytic effect in the FPS model similar in magnitude to that elicited by equivalent (mg/kg) doses of bumetanide”. In addition, in the data set with bicuculline spiking (in vivo), the “Average % change in ISI” value was found to be 26%, the “Average % change in spike size” value amounted to 35.2%, the “Time to 50% recovery for spike sizes” value stood at 160 min and the “Time to 50% recovery of ISI” value came to 126 min. Further, the “time postinjection of recovery to baseline pretreatment spiking” value in the data set with bicuculline spiking (in vivo) was over 155 min. In the data set on bicuculline spiking (in vivo, iv, 2 mg/kg), the “effect on bicuculline spiking after intravenous dose” value is listed as “near-complete blockade of the bicuculline spiking” and the “time postinjection of traces showing profound, nearly complete blockade of epileptiform activity” value was determined as 72 min. For the same compound, the “effect on bicuculline spiking after oral dose” value with bicuculline spiking (in vivo, po) was “reduced spike height and frequency of bicuculline spiking; also recorded: transiently mediate a reduction in size and frequency of spiking”.

For the compound `CCCCNc1cc(C(=O)O)cc(S(N)(=O)=O)c1Oc1ccccc1` [Bumetanide, 3-(Aminosulfonyl)-5-(butylamino)-4-phenoxybenzoic acid, reference compound], in data set [1] (setting [10]), the diuretic response entry is on record as “potent diuretic effect”. Also, the “anticonvulsant effect” value in the data set with epileptiform activity is given as “block seizures”. In addition, the “block of 4-AP bursting” value with 4-AP bursting is given as “block 4-AP bursting”. In the data set with ADs and hand-twitching, the “block of ADs and hand-twitching” value was “block ADs and hand-twitching”. Further, the “block of bicuculline spiking” value in the data set on bicuculline spiking is reported as “block bicuculline spiking”. Besides, the “block of bicuculline spiking” value in the data set on bicuculline spiking (listed as bumetanide) is listed as “suppress bicuculline spiking”. Moreover, the “time postinjection of traces showing profound, nearly complete blockade of epileptiform activity” value with bicuculline spiking (IV, 2 mg/kg bumetanide or mol-Eq) came out at 81 min. Moreover, in the data set with bicuculline spiking (IV, 2 mg/kg bumetanide or mol-Eq, in PEG-200), the “effect on bicuculline spiking after intravenous dose” value is listed as “near-complete blockade of the bicuculline spiking”. Besides, the “time postinjection of recovery to baseline pretreatment spiking” value in the data set with bicuculline spiking (IV, 2 mg/kg bumetanide or mol-Eq, NPT 2042 experiment ended before recovery) is about 120 min. For the same compound, the “Average % change in spike size” value with bicuculline spiking (setting [8]) stood at 23.7%. Also, in the data set with bicuculline spiking (setting [10]), the “effect on bicuculline spiking after oral dose” value is “reduced spike height and frequency of bicuculline spiking; also recorded: transiently mediate a reduction in size and frequency of spiking”. Further, in the data set on bicuculline spiking (setting [9]), the “Time to 50% recovery for spike sizes” value was found to be 35 min and the “Time to 50% recovery of ISI” value was determined as 163 min. For the same compound, the “Average % change in ISI” value in the data set with bicuculline spiking (setting [11]) is listed as 68.7%.

As to `CCCC(C)C1(CC)C(=O)NC(=S)NC1=O` (stereo not shown) [pentothal, sodium thiopental], the “block of 4-AP bursting” value in the data set with 4-AP bursting is recorded as “block 4-AP bursting”.

Take `CCCCNc1cc(C(=O)N2CCOCC2)cc(S(N)(=O)=O)c1Oc1ccccc1` [NPT 2024, Bumetanide Morpholino Amide]: in data set [7], the “average rate of urine production” value is given as “lower average rate of urine production compared to bumetanide”, the “percentage change” value was “lower percentage change in urine production over time compared to bumetanide” and the “rate of urine production over time” value is “lower rate of urine production over time compared to bumetanide”. Also, the “Average % change in spike size” value with bicuculline spiking (setting [8]) was determined as 44%. Moreover, in the data set with bicuculline spiking (setting [9]), the “Time to 50% recovery for spike sizes” value was determined as 110 min and the “Time to 50% recovery of ISI” value turned out to be 180 min. In addition, the “Average % change in ISI” value in the data set on bicuculline spiking (setting [11]) worked out at 37.5%. The “interspike intervals compared with bumetanide parent” value with bicuculline spiking (n=4, FIG. 8) is on record as “dramatic increase in interspike intervals”. Also, the “spikes per minute compared with bumetanide parent” value in the data set with bicuculline spiking (n=4, FIG. 9) is recorded as “dramatic decrease in spikes per minute”. The “average spike height compared with bumetanide parent” value in the data set on bicuculline spiking (n=4, FIG. 10) was “dramatic decrease in the average spike height”.
